{"source": "paper PMC11052913", "about": "“Determination of Regorafenib monohydrate (colorectal anticancer drug) solubility in supercritical CO2: Experimental and thermodynamic modeling” (Heliyon, 2024)", "key": {"[1]": {"conditions": "cited from earlier work"}, "[2]": {"assay": "Solubility of REG in supercritical CO2, static isobaric-isothermal method with UV-Vis quantification", "format": "physicochemical", "protocol": "The solubility of REG in ScCO2 was measured using a pilot-scale apparatus, as depicted in Fig. 1. […] An F-1 CO2 cylinder, an F-2 needle valve, an F-3 molecular sieve filter, an F-4 refrigeration unit, an F-5 high-pressure pump, an F-6 air compressor, an F-7 oven, an F-8 magnetic stirrer, an F-9 high-pressure equilibrium cell, an F-10 3-position valve, and an F-16 back-pressure valve were all part of the apparatus.\nIn each experimental trial, a consistent amount of 1 g of the REG drug was administered into the immobile cell, which was subsequently positioned inside a thermal chamber. The aforementioned measure was enacted with the purpose of ensuring that the temperature remains within a narrow range of ±0.1 K from the designated experimental point. At both cell ends, stainless-steel sintered filters were added to limit undissolved REG. After that, high-pressure CO2 was poured into the cell and allowed to sit for 70 min in order to obtain saturation. Based on earlier studies, we know that 60 min is sufficient to achieve balance. The isobaric-isothermal category includes this kind of measurement. Throughout the experiment, the target temperatures and pressure levels were kept within ±0.1 K and ±0.1 MPa, respectively, for every data point. Following the triplicate execution of the experiments, the average solubility values were computed.\nAfter reaching equilibrium, we used a 2-position 6-way port valve to collect 600 μL of saturated ScCO2 samples. The materials were thereafter transferred into a vial that was pre-filled with dimethyl sulfoxide (DMSO). The flow rate was managed by means of a micrometer valve. Each experiment was finished with the flow line being purified with 1 mL of DMSO after 5 mL of the solution had been collected. Using a UNICO-4802 UV–Vis spectrophotometer set to a peak wavelength (λmax) of 275 nm, we examined the absorbance of REG in DMSO for solubility assessment. The solubility of REG in ScCO2 was determined according to a given equation. The amount of REG dissolved in ScCO2, denoted as (y2), was measured in terms of mole fraction. […] The quantification of the dissolved substance was accomplished through the measurement of UV absorbance. The calculation of the moles of REG (nREG) and CO2 (n1) in the loop was performed as follows:(1) nREG=CREG(g/L).VREG(L)/MREG(g/mol) (2) n1=V1(L).ρ1(g/L)/M1(g/mol)\nThe concentration of REG (g/L) in the collection vial is denoted as CREG. The sampling loop and the collection vial are represented by V1 (L) and VREG (L), respectively. The symbols M1 and MREG represent the molar masses of carbon dioxide (CO2) and a substance denoted as REG, respectively. The method out-lined in references was employed to determine the equilibrium mole fraction of REG, denoted as y2, in supercritical CO2 under varying temperatures and pressures.(3) y2=nREG/n1+nREG\nThe following equation was applied to determine the solubility of REG, S (in g/L), in the supercritical CO2(4) S=CREG(g/L).VREG(L)/V1(L)\nEq. (4) can be reformulated as below:(5) S=ρMREG/M1y2/(1−y2) In fact, Eq. (5) is another form of Eq. (4)."}, "[3]": {"assay": "Total, vaporization and solvation enthalpies of the REG-ScCO2 system estimated from Chrastil, Kumar-Johnston and Bartle et al. model constants", "format": "physicochemical", "excerpt": "In Fig. 3, the self-consistency test of experimental REG solubility data employed the models Chrastil, Kumar-Johnston, Bartle et al., and Mendez-Teja. […] In other words, wherein all data points at different isotherms falls onto a single straight line, indicating the self-consistency test for the solubility of REG in ScCO2 at different temperatures.\nAnalogous techniques were applied for Galantamine, Clonazepam, Lansoprazole, and Esomeprazole. Finally, the total (ΔHtot-=-41.16 kJ/mol), vaporization (ΔHvap-=-60.04 kJ/mol), and solvation (ΔHsol-=-18.88 kJ/mol) enthalpies for the REG-ScCO2 binary system were estimated as part of this work. More detail of enthalpies of the REG can be seen in Table 4."}, "[4]": {"design": "method as in PMID 28214672, doi:10.1016/j.jddst.2019.101462", "conditions": "pH 6.5 and 22–23 °C; cited from earlier work"}}, "note": "Where a name gives a salt, the structure may show the parent alone. Read-outs that look alike come from different tables or passages of the source. Marks after values point to notes of the source that are not given here."}
{"smiles": "CC(=O)N(c1ccccc1)c1ccc(C)cc1", "note": "[4-Methyl-N-phenylacetanilide]", "values": [{"measurement": "Mole fraction solubility in ScCO2", "setting": "[1]; N 21, T 308-328 K, P 12.16-22.5 MPa, ref [2] of supplement", "value": "38.4-480.2 (×10^6) mole fraction"}]}
{"smiles": "Cc1ccc(C(=O)O)cc1", "note": "[4-Methylbenzoic acid]", "values": [{"measurement": "Mole fraction solubility in ScCO2", "setting": "[1]; N 18, T 313-333 K, P 11-24.6 MPa, ref [3] of supplement", "value": "43-702 (×10^6) mole fraction"}]}
{"smiles": "CS(=O)(=O)OCCCCOS(C)(=O)=O", "note": "[Busulfan]", "values": [{"measurement": "Mole fraction solubility in ScCO2", "setting": "[1]; N 32, T 308-328 K, P 12-40 MPa, ref [5] of supplement", "value": "32.7-865 (×10^6) mole fraction"}]}
{"smiles": "O=C(O)c1ccccc1Nc1cccc(Cl)c1Cl", "note": "[Clofenamic acid]", "values": [{"measurement": "Mole fraction solubility in ScCO2", "setting": "[1]; N 24, T 313-333 K, P 12-36 MPa, ref [9] of supplement", "value": "1.54-35.44 (×10^6) mole fraction"}]}
{"smiles": "CC(C)(Oc1ccc(Cl)cc1)C(=O)O", "note": "[Clofibric acid]", "values": [{"measurement": "Mole fraction solubility in ScCO2", "setting": "[1]; N 21, T 308-328 K, P 10.01-22.02 MPa, clofibric acid, ref [7] of supplement", "value": "32.1-856 (×10^6) mole fraction"}]}
{"smiles": "O=C1CN=C(c2ccccc2Cl)c2cc([N+](=O)[O-])ccc2N1", "note": "[Clonazepam]", "values": [{"measurement": "Mole fraction solubility in ScCO2", "setting": "[1]; N 28, T 308-338 K, P 12-30 MPa, ref [1] of supplement", "value": "3.9-72.6 (×10^6) mole fraction"}]}
{"smiles": "Cc1nc(Nc2ncc(C(=O)Nc3c(C)cccc3Cl)s2)cc(N2CCN(CCO)CC2)n1", "note": "[Dasatinib monohydrate]", "values": [{"measurement": "Mole fraction solubility in ScCO2", "setting": "[1]; N 24, T 328-338 K, P 12-27 MPa, ref [11] of supplement", "value": "0.45 - 9.08 (×10^6) mole fraction"}]}
{"smiles": "Cc1ccc(C)c(OCCCC(C)(C)C(=O)O)c1", "note": "[Gemfibrozil]", "values": [{"measurement": "Mole fraction solubility in ScCO2", "setting": "[1]; N 21, T 308-328 K, P 10.01-22.02 MPa, gemfibrozil, ref [7] of supplement", "value": "29.4-4190 (×10^6) mole fraction"}]}
{"smiles": "Nc1nnc(-c2cccc(Cl)c2Cl)c(N)n1", "note": "[Lamotrigine]", "values": [{"measurement": "Mole fraction solubility in ScCO2", "setting": "[1]; N 36, T 318-338 K, P 12.16-35.46 MPa, ref [8] of supplement", "value": "0.3-5.9 (×10^6) mole fraction"}]}
{"smiles": "COc1cc2nc(N3CCN(C(=O)c4ccco4)CC3)nc(N)c2cc1OC", "note": "[Prazosin Hydrochloride]", "values": [{"measurement": "Mole fraction solubility in ScCO2", "setting": "[1]; N 24, T 328-338 K, P 12-27 MPa, ref [12] of supplement", "value": "1.5-72 (×10^6) mole fraction"}]}
{"smiles": "CNC(=O)c1cc(Oc2ccc(NC(=O)Nc3ccc(Cl)c(C(F)(F)F)c3)c(F)c2)ccn1", "note": "[Regorafenib monohydrate, 4-(4-(3-(4-chloro-3-(trifluoromethyl)phenyl)ureido)-3-fluorophenoxy)-N-methylpicolinamide]", "values": [{"measurement": "S (equilibrium solubility) in ScCO2", "setting": "[2]; 308 K, 120 bar, CO2 density 769 kg/m^3", "value": 10.6, "unit": "µg/mL"}, {"measurement": "S (equilibrium solubility) in ScCO2", "setting": "[2]; 308 K, 150 bar, CO2 density 817 kg/m^3", "value": 15.5, "unit": "µg/mL"}, {"measurement": "S (equilibrium solubility) in ScCO2", "setting": "[2]; 308 K, 180 bar, CO2 density 849 kg/m^3", "value": 18, "unit": "µg/mL"}, {"measurement": "S (equilibrium solubility) in ScCO2", "setting": "[2]; 308 K, 210 bar, CO2 density 875 kg/m^3", "value": 22.6, "unit": "µg/mL"}, {"measurement": "S (equilibrium solubility) in ScCO2", "setting": "[2]; 308 K, 240 bar, CO2 density 896 kg/m^3", "value": 29.2, "unit": "µg/mL"}, {"measurement": "S (equilibrium solubility) in ScCO2", "setting": "[2]; 308 K, 270 bar, CO2 density 914 kg/m^3", "value": 31.5, "unit": "µg/mL"}, {"measurement": "S (equilibrium solubility) in ScCO2", "setting": "[2]; 318 K, 120 bar, CO2 density 661 kg/m^3", "value": 7.2, "unit": "µg/mL"}, {"measurement": "S (equilibrium solubility) in ScCO2", "setting": "[2]; 318 K, 150 bar, CO2 density 744 kg/m^3", "value": 9.8, "unit": "µg/mL"}, {"measurement": "S (equilibrium solubility) in ScCO2", "setting": "[2]; 318 K, 180 bar, CO2 density 791 kg/m^3", "value": 12.4, "unit": "µg/mL"}, {"measurement": "S (equilibrium solubility) in ScCO2", "setting": "[2]; 318 K, 210 bar, CO2 density 824 kg/m^3", "value": 28.7, "unit": "µg/mL"}, {"measurement": "S (equilibrium solubility) in ScCO2", "setting": "[2]; 318 K, 240 bar, CO2 density 851 kg/m^3", "value": 31.9, "unit": "µg/mL"}, {"measurement": "S (equilibrium solubility) in ScCO2", "setting": "[2]; 318 K, 270 bar, CO2 density 872 kg/m^3", "value": 37.2, "unit": "µg/mL"}, {"measurement": "S (equilibrium solubility) in ScCO2", "setting": "[2]; 328 K, 120 bar, CO2 density 509 kg/m^3", "value": 3.6, "unit": "µg/mL"}, {"measurement": "S (equilibrium solubility) in ScCO2", "setting": "[2]; 328 K, 150 bar, CO2 density 656 kg/m^3", "value": 7, "unit": "µg/mL"}, {"measurement": "S (equilibrium solubility) in ScCO2", "setting": "[2]; 328 K, 180 bar, CO2 density 725 kg/m^3", "value": 10, "unit": "µg/mL"}, {"measurement": "S (equilibrium solubility) in ScCO2", "setting": "[2]; 328 K, 210 bar, CO2 density 769 kg/m^3", "value": 33.1, "unit": "µg/mL"}, {"measurement": "S (equilibrium solubility) in ScCO2", "setting": "[2]; 328 K, 240 bar, CO2 density 802 kg/m^3", "value": 37.1, "unit": "µg/mL"}, {"measurement": "S (equilibrium solubility) in ScCO2", "setting": "[2]; 328 K, 270 bar, CO2 density 829 kg/m^3", "value": 39.2, "unit": "µg/mL"}, {"measurement": "S (equilibrium solubility) in ScCO2", "setting": "[2]; 338 K, 120 bar, CO2 density 388 kg/m^3", "value": 1.3, "unit": "µg/mL"}, {"measurement": "S (equilibrium solubility) in ScCO2", "setting": "[2]; 338 K, 150 bar, CO2 density 557 kg/m^3", "value": 3.7, "unit": "µg/mL"}, {"measurement": "S (equilibrium solubility) in ScCO2", "setting": "[2]; 338 K, 180 bar, CO2 density 652 kg/m^3", "value": 7.2, "unit": "µg/mL"}, {"measurement": "S (equilibrium solubility) in ScCO2", "setting": "[2]; 338 K, 210 bar, CO2 density 710 kg/m^3", "value": 34.6, "unit": "µg/mL"}, {"measurement": "S (equilibrium solubility) in ScCO2", "setting": "[2]; 338 K, 240 bar, CO2 density 751 kg/m^3", "value": 41, "unit": "µg/mL"}, {"measurement": "S (equilibrium solubility) in ScCO2", "setting": "[2]; 338 K, 270 bar, CO2 density 783 kg/m^3", "value": 55.3, "unit": "µg/mL"}, {"measurement": "crossover pressure of the solubility isotherms in ScCO2", "setting": "[2]; isotherms 308–338 K", "value": "18–21 MPa"}, {"measurement": "maximum equilibrium mole fraction in ScCO2", "setting": "[2]; over 308–338 K and 120–270 bar, maximum at 338 K and 27 MPa, listed as REG", "value": "6.44×10^−6 mole fraction"}, {"measurement": "minimum equilibrium mole fraction in ScCO2", "setting": "[2]; over 308–338 K and 120–270 bar, minimum at 338 K, listed as REG", "value": "3.06×10^−7 mole fraction"}, {"measurement": "vaporization enthalpy ΔHvap", "setting": "[3]; based on Bartle et al. model", "value": 14.35, "unit": "kcal/mol"}, {"measurement": "ΔHtot", "setting": "[3]; based on Kumar-Johnston model", "value": 9.833, "unit": "kcal/mol"}, {"measurement": "ΔHtot", "setting": "[3]; based on the Chrastil model", "value": 9.84, "unit": "kcal/mol"}, {"measurement": "solubility in water", "setting": "[4]", "value": 0.12, "unit": "µg/mL"}]}
